Experiments:
Stat3 = Stat3 (Homo sapiens, UniProt P40763); experiment: Stat3/pY-peptide binding assay (SPR, BIAcore); conditions: recombinant Stat3 500 nM; immobilized EGFR Y1068 phosphododecapeptide; 25°C; read-out: SPR IC50, inhibition of Stat3 binding to pY peptide ligand
Experimental: A control (Stat3 with DMSO but without compound) was run at the beginning and the end of each cycle (40 sample injections) to ensure that the integrity of the sensor chip was maintained throughout the cycle run. The average of the two controls was normalized to 100% and used to evaluate the effect of each compound on Stat3 binding. Responses were normalized by dividing the value at 2 min by the response obtained in the absence of compounds at 2 min and multiplying by 100.

[1] = system: cell lines MDA-MB-453 and MCF7; experiment: Apoptosis assay, summary over the cell lines without constitutive Stat3 activity; type: cell-based; conditions: Homo sapiens, concentrations up to 300 µM, read-out: EC50 apoptosis induction, MDA-MB-453 and MCF7
Experimental: (§1) Human breast carcinoma cell lines MDA-MB-468, MDA-MB-231, MBA-MD-435 and MCF7 were kindly provided by Dr. Powel H. Brown (Breast Cancer Center, Baylor College of Medicine). Breast cancer cell line, MDA-MB-453 was kindly provided by Dr. Shou Jiang (Breast Cancer Center, Baylor College of Medicine). All cell lines were grown in DMEM medium supplemented with 10% fetal bovine serum (FBS), 25,000 units penicillin G, 25,000 µg streptomycin, and 131.4 mg L-Glutamine and cultured in the incubator under the condition of 95% air, 5% CO2 at 37°C [33]. Cells were seeded at 2,500 cells/cm^2 into 12-well plates. At 80% confluency, cells were washed with PBS and supplemented with fresh medium containing compound or the topoisomerase I-inhibitor, camptothecin, at 0, 0.1, 0.3, 1, 3, 10, 30, 100, 300 µM. At 24 hours, treatment was terminated by removing the medium from each well. Cells were lysed with cell lysis buffer (600 µl for 30 minutes at 25°C). Cell lysate (200 µl) was centrifuged at 200 g for 10 minutes and 20 µl of each supernatant was assayed for nucleosomes using the Cell Death Detection ELISA (Roche Applied Science) as described by the manufacturer. The percent maximum nucleosome level was calculated by dividing the nucleosome level by the maximum nucleosome level achieved in the assay and multiplying by 100.
(§2) MDA-MB-468 (panel A), MDA-MB-231 (panel B), MDA-MB-435 (panel C), MCF7 (panel D) and MDA-MB-453 (panel E) were seeded in 12-well plates, grown overnight then treated with the indicated compound for 24 hr. Cells were centrifuged and the supernatants assayed for nucleosome levels by ELISA. The percent maximum nucleosome level was calculated (nucleosome level ÷ maximum nucleosome level achieved in the assay ×100) and plotted as a function of the log compound concentration. The best-fitting curve was determined using 4-ParameterLogistic Model/Dose Response One Site/XLfit 4.2, IDBS software and was used to determine the EC50 value (Table 3).

MDA-MB-468 = experiment: Breast cancer cell line apoptosis assay (nucleosome ELISA); type: cell-based; conditions: Homo sapiens, 24 hr, read-out: EC50 apoptosis induction
Experimental: as §1, with “100. This value was plotted as a function of the log compound concentration and the best-fitting curve and EC50 value determined using 4-Parameter Logistic Model/Dose Response/XLfit 4.2, IDBS software.” for “100.”
as §2, with “Figure 5 Apoptosis induction of breast cancer cell lines by compounds; selective apoptosis of cell lines that are Stat3 dependent. MDA-MB-468” for “MDA-MB-468”

MDA-MB-435 = experiment: as above; type: cell-based; conditions: Homo sapiens, 24 hr, read-out: EC50 apoptosis induction
Experimental: as §1, with “100. This value was plotted as a function of the log compound concentration and the best-fitting curve and EC50 value determined using 4-Parameter Logistic Model/Dose Response/XLfit 4.2, IDBS software.” for “100.”
as §2, with “Figure 5 Apoptosis induction of breast cancer cell lines by compounds; selective apoptosis of cell lines that are Stat3 dependent. MDA-MB-468” for “MDA-MB-468”

MDA-MB-453 = experiment: as above; type: cell-based; conditions: Homo sapiens, 24 hr, read-out: EC50 apoptosis induction
Experimental: as §1, with “100. This value was plotted as a function of the log compound concentration and the best-fitting curve and EC50 value determined using 4-Parameter Logistic Model/Dose Response/XLfit 4.2, IDBS software.” for “100.”
as §2, with “Figure 5 Apoptosis induction of breast cancer cell lines by compounds; selective apoptosis of cell lines that are Stat3 dependent. MDA-MB-468” for “MDA-MB-468”

MDA-MB-231 = experiment: as above; type: cell-based; conditions: Homo sapiens, 24 hr, read-out: EC50 apoptosis induction
Experimental: as §1, with “100. This value was plotted as a function of the log compound concentration and the best-fitting curve and EC50 value determined using 4-Parameter Logistic Model/Dose Response/XLfit 4.2, IDBS software.” for “100.”
as §2, with “Figure 5 Apoptosis induction of breast cancer cell lines by compounds; selective apoptosis of cell lines that are Stat3 dependent. MDA-MB-468” for “MDA-MB-468”

MCF7 = experiment: as above; type: cell-based; conditions: Homo sapiens, 24 hr, read-out: EC50 apoptosis induction
Experimental: as §1, with “100. This value was plotted as a function of the log compound concentration and the best-fitting curve and EC50 value determined using 4-Parameter Logistic Model/Dose Response/XLfit 4.2, IDBS software.” for “100.”
as §2, with “Figure 5 Apoptosis induction of breast cancer cell lines by compounds; selective apoptosis of cell lines that are Stat3 dependent. MDA-MB-468” for “MDA-MB-468”

[2] = system: breast cancer cell lines with constitutive Stat3 activity—MDA-MB-468, MDA-MB-231 and MDA-MB-435; experiment: Apoptosis assay, summary over the cell lines with constitutive Stat3 activity; type: cell-based; conditions: Homo sapiens, 24 hr, read-out: EC50 apoptosis induction, range over three cell lines
Experimental: as §1, §2

Sequence of Stat3 (P40763 whole entry, species assumed): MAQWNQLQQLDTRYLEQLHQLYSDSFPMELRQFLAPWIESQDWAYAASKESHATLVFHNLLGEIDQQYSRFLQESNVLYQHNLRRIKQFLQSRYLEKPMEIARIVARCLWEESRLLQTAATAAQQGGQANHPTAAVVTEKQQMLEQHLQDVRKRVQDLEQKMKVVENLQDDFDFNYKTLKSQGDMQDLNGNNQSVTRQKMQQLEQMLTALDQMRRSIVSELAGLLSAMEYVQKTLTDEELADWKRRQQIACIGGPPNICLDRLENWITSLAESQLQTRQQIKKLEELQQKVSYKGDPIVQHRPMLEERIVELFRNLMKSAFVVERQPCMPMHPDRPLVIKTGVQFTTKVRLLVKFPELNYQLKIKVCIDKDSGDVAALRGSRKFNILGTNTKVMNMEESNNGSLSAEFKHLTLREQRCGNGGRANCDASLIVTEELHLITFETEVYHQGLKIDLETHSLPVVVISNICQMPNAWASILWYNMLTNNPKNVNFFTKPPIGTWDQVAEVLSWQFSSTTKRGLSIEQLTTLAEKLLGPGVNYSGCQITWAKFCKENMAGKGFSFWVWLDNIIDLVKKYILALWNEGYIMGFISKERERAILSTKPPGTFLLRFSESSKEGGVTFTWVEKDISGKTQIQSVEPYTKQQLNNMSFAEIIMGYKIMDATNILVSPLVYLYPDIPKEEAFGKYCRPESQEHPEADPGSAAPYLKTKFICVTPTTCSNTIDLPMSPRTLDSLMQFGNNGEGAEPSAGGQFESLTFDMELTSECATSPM

IC50 (Stat3): 447 µM | EC50 [1]: > 300 µM | EC50 (MDA-MB-468): 2.28 µM | EC50 (MDA-MB-435): 16.5 µM | EC50 (MDA-MB-453): > 300 µM | EC50 (MDA-MB-231): 26.9 µM | EC50 (MCF7): > 300 µM | EC50 [2]: 2.3 to 26.9 µM
SMILES: O=C(O)c1ccc(C=CC(=O)c2ccc3c(c2)OCCO3)cc1 [Cpd3, 4-[3-(2,3-dihydro-1,4-benzodioxin-6-yl)-3-oxo-1-propen-1-yl]benzoic acid]
